Test results reported in patent US20070280919A1, “Produce-treatment composition and method for treatment of fresh produce” (priority 2006, published 2007).

System: green mold (P. digitatum)
Assay: In vivo efficacy test on inoculated fruit, green mold incidence (FIG. 1)
Design: species or system Penicillium digitatum
Settings: fruit puncture-inoculated with P. digitatum, imazalil at 0.1%
Method: In vivo efficacy tests for the formulation of Table 7 were carried out on Fallglo tangerines, pineapples, and Valencia oranges inoculated with Penicillium digtatum using a puncture method, in which the fruit was punctured with the tip of a 1 mm×1 mm probe that had been dipped into the inoculum solution (1×10^6 fungal spores/ml). The fruit was then subject to either a dip treatment procedure or a packingline dip treatment procedure twenty to twenty-four hours after inoculation. The dip treatment procedure involved dipping the inoculated fruit into the composition for one (1) minute. The packingline dip treatment procedure involved treating the fruit with suspensions or wax containing the produce-treatment composition using a non-recovery drip system through a simulated commercial packing line. Fruits were rotated on brush beds and contacted with chemicals for 15 to 20 seconds, and then dried at 50-54° C. for 1-2 minutes. In both procedures, the treated fruit was incubated at 21° C. with 95% relative humidity. FIG. 1 depicts a bar graph reporting the efficacy of the produce-treatment composition of Table 7 to green mold (P. digitatum), and comparing the results to those of a control (distilled water) and 0.1% imazalil. The inventive formulation reduced green-mold incidences to […], relative to untreated produce. […]

## C=CCOC(Cn1ccnc1)c1ccc(Cl)cc1Cl (centres unmarked) [imazalil]
Treated 20-24 h later, incubated at 21° C., 95% RH
  green-mold incidences: 51%
Relative to untreated produce
  reduction of green-mold incidences: 49%
